Measurements published in US12227488B2, “Small molecule degraders of Helios and methods of use” (DANA-FARBER CANCER INSTITUTE, INC., priority 2018, dated 2025).

Legend:
CRBN and Helios (IKZF2) = target: T1, CRBN and Helios (IKZF2) (Homo sapiens, UniProt Q96SW2+Q9UKS7); experiment: TR-FRET dimerization assay (CRBN-IKZF2 ternary complex formation); type: binding; conditions: for TR-FRET signal (520/490 ratio), CRBN-Helios dimerization, in words: FIG. 1B, 2A, 5; for TR-FRET-IKZF2 (Normalized to CC-885): n=1
T1 construct: His (N); Strep (N)
T1 sequence (Q96SW2 whole entry): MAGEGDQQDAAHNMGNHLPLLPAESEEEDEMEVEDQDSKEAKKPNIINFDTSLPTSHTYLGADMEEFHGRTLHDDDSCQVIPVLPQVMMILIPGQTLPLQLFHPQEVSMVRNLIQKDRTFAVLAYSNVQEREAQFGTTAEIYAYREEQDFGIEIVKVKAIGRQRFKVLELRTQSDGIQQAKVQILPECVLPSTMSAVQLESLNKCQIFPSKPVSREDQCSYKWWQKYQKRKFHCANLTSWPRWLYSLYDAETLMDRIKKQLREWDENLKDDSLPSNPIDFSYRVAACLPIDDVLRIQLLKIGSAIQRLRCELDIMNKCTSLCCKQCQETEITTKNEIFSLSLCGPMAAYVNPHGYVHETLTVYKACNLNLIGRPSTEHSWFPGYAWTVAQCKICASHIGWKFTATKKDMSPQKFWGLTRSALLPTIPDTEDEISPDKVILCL
T1 sequence (Q9UKS7 whole entry): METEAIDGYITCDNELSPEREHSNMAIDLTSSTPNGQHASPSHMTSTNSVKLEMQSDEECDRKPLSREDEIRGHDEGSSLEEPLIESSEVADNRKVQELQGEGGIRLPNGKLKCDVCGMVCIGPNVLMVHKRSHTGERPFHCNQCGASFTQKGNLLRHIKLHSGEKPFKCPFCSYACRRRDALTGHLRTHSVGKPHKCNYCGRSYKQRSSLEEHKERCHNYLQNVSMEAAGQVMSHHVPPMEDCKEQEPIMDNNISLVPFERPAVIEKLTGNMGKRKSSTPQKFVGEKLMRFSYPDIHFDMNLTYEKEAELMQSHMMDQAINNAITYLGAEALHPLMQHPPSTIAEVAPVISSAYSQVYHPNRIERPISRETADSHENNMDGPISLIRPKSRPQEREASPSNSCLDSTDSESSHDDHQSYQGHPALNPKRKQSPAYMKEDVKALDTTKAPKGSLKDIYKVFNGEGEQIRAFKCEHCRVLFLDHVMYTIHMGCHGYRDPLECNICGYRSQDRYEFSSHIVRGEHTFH
Procedure, shortened: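 BODIPY-labeled DDB1ΔB-CRBN and in vitro biotinylated IKZF2 were treated with increasing compound concentrations plus tracer Terbium-Streptavidin and incubated 15 min at rt. Recruitment was quantified as the 520/490 nm TR-FRET ratio; values are single measurements (n=1), each averaged from at least three technical replicates.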

IKZF2 = experiment: Cellular degradation assay, eGFP-IKZF2Δ fusion with mCherry reporter in Flp-In 293 cells; type: cell-based; conditions: for IKZF2 GFP/RFP Relative Abundance: 5 h incubation, n=1
Procedure, shortened: (§1)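 Flp-In 293 cells stably expressing eGFP-tagged degron fusions with P2A-mCherry reporter were treated with compound titrations (0.5% DMSO) for 5 hours. Imaging quantified GFP-positive/mCherry-positive cell fraction per well; DC50 at 5 h from nonlinear variable-slope fit.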

IKZF1 = target: T2, IKZF1 (Homo sapiens, UniProt Q13422); experiment: Cellular degradation assay, eGFP-IKZF1Δ fusion with mCherry reporter in Flp-In 293 cells; type: cell-based; conditions: for IKZF1 GFP/RFP Relative Abundance: 5 h incubation, n=1
T2 construct: expressed in transfected cells; host or cells: Flp-In 293
T2 sequence (Q13422 83-213 isoform Q13422-7 limits assumed): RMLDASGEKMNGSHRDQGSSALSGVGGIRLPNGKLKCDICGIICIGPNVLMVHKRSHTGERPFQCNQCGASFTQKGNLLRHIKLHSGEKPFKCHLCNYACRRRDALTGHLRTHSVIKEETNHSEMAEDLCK
T2 sequence (Q96SW2 whole entry partner, the tested form may be a part): as the sequence (Q96SW2 whole entry) above
T2 sequence (Q16531 2-1140 partner limits assumed): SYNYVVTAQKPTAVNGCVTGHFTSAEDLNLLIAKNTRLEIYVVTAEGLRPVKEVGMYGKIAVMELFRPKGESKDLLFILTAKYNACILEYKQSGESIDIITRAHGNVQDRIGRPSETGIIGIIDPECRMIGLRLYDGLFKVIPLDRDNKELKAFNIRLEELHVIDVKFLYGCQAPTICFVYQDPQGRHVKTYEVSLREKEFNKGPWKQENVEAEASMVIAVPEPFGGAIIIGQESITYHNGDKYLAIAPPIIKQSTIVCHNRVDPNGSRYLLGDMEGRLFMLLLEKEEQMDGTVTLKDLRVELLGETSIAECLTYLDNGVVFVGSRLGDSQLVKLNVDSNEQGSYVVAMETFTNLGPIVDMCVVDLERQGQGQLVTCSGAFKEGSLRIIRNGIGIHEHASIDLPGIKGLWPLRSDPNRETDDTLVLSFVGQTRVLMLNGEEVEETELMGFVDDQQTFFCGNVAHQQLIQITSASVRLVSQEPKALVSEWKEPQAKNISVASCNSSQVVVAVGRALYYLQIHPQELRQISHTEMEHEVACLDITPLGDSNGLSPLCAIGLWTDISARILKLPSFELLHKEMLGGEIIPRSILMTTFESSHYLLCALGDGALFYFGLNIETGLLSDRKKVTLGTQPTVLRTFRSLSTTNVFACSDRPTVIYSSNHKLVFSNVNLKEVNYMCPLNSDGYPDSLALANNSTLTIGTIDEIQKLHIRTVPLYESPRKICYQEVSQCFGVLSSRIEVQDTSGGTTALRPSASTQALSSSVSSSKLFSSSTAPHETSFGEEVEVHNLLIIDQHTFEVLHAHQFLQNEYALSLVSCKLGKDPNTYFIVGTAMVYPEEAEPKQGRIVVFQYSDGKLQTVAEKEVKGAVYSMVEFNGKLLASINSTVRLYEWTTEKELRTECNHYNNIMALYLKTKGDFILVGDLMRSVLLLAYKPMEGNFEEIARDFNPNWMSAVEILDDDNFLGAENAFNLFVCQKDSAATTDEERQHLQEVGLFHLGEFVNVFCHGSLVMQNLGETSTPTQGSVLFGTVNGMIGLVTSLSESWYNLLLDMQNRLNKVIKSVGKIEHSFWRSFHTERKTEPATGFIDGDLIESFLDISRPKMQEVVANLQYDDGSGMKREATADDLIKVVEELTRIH
Procedure, shortened: as §1

Helios [1] = target: T3, Helios (Homo sapiens, UniProt Q96SW2+Q9UKS7); experiment: Immunoblot for Helios in Jurkat cells; type: cell-based; conditions: for Helios degradation on co-treatment with proteasome or NAE inhibitor: Jurkat cells, 1 μM compound with 1 μM bortezomib, MLN4924 or carfilzomib, 4 h; for Helios degradation (immunoblot): wildtype or Crbn−/− Jurkat cells, 4 h treatment
T3 construct: endogenous in cells; host or cells: Jurkat
T3 sequence (Q9UKS7 whole entry): as the sequence (Q9UKS7 whole entry) above
T3 sequence (Q96SW2 whole entry): as the sequence (Q96SW2 whole entry) above
T3 sequence (Q16531 whole entry partner): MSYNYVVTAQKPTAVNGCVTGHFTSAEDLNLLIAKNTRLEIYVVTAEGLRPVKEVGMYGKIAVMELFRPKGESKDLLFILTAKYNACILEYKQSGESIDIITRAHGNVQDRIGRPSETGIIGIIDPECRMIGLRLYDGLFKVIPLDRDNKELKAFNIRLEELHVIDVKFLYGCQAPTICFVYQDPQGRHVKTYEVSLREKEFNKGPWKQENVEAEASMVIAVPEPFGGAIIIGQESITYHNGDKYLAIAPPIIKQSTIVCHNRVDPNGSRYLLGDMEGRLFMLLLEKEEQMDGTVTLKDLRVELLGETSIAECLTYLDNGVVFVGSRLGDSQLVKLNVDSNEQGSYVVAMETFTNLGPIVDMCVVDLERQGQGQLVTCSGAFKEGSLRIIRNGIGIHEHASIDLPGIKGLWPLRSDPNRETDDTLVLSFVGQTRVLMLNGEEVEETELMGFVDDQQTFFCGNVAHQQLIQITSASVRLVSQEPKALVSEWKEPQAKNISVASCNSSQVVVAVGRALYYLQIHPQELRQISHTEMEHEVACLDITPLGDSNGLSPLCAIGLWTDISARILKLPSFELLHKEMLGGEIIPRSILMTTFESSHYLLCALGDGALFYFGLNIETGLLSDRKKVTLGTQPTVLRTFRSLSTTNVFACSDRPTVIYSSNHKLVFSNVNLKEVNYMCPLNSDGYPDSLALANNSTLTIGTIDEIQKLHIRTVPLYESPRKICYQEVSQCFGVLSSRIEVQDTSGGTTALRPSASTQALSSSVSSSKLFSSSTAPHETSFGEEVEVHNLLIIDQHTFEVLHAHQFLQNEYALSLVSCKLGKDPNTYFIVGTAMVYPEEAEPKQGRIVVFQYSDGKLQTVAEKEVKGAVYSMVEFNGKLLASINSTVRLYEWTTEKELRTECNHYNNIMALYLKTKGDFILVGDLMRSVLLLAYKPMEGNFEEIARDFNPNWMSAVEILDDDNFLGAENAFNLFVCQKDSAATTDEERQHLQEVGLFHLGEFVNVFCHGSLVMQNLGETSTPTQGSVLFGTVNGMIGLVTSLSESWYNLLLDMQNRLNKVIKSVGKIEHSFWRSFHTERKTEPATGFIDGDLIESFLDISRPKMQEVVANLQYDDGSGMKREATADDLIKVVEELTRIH
Description: (§2) A focused library of imide analogs was synthesized and assessed for their ability to induce dimerization between CRBN and Helios in a time-resolved fluorescence energy transfer (TR-FRET) assay (FIG. 1A).
(§3) Cells were lysed in M-PER buffer (Thermo Scientific) containing protease/phosphatase inhibitor cocktail (Roche). Protein concentration was measured using a BCA assay (Pierce™) Equivalent amounts of each sample were loaded on 4-12% Bis-Tris gels (Invitrogen™) transferred to nitrocellulose membranes, and immunoblotted with the indicated antibodies. IRDye®800-labeled goat anti-rabbit IgG and IRDye®680-labeled goat anti-mouse IgG (LI-COR®) secondary antibodies were purchased from LI-COR®, and membranes were detected on an Odyssey® detection system (LI-COR® Biosciences).
as §3, with “Odyssey” for “Odyssey®”

Ikaros [2] = target: T4, Ikaros (Homo sapiens, UniProt Q13422+Q96SW2); experiment: Immunoblot for Ikaros in Jurkat cells; type: cell-based; conditions: 4 h treatment
T4 construct: endogenous in cells; host or cells: Jurkat
T4 sequence (Q13422 whole entry): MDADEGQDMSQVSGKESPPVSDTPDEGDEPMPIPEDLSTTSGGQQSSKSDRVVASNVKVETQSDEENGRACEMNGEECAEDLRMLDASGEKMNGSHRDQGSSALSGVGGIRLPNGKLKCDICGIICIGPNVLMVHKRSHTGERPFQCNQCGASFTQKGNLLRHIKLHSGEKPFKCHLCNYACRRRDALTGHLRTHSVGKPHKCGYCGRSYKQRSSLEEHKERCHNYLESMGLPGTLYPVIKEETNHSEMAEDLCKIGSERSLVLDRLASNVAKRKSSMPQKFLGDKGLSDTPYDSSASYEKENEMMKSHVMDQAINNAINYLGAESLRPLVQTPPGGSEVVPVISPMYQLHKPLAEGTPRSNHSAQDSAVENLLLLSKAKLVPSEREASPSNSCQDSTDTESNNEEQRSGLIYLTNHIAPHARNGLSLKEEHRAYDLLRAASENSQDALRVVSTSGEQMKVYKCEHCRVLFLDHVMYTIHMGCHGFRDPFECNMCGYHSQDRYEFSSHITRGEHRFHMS
T4 sequence (Q96SW2 whole entry): as the sequence (Q96SW2 whole entry) above
T4 sequence (Q16531 whole entry partner): as the sequence (Q16531 whole entry partner) above
Description: as §2, §3

Ikzf2 mRNA = experiment: qPCR for Ikzf2 mRNA in Jurkat cells; type: cell-based; conditions: 4 h, n=3
Description: FIG. 2A is a graph of 520/490 TR-FRET ratios. […] FIG. 2C is immunoblots from wildtype or Crbn−/− Jurkat cells treated with compound 54 for 4 h. FIG. 2D is immunoblots from Jurkat cells co-treated with compound 54 (1 μM) and bortezomib (bort.; 1 μM) or MLN4924 (1 μM) for 4 h. FIG. 2E is a bar graph showing quantitative polymerase chain reaction (qPCR) for Ikzf2 messenger ribonucleic acid (mRNA) from Jurkat cells treated for 4 h (n=3; N.S.=not significant).

Helios [3] = target: T5, Helios (Mus musculus, UniProt P81183); experiment: Immunoblot for Helios in Hoxb8-immortalized myeloid progenitor cells (wildtype or Crbn^I391V/I391V); type: cell-based, murine; conditions: Hoxb8 myeloid progenitor cells from wildtype or Crbn^I391V/I391V mice, 18 h
T5 construct: endogenous in cells; host or cells: Hoxb8-immortalized myeloid progenitor cells from mice
Description: IKZF1/3 are not susceptible to IMiD-mediated degradation in murine cells, and this can be rescued by mutating a single amino acid on the surface of murine CRBN (Ile 391) to the analogous human residue (Val). To determine whether Helios follows a similar pattern, Hoxb8-immortalized myeloid progenitor cells derived from wildtype or Crbn^I391V/I391V mice were treated with compound 54. […] Thus, Helios is degradable in murine cells only if they express ‘humanized’ CRBN.

GSPT1 [4] = target: T6, GSPT1 (Homo sapiens, UniProt P15170+Q96SW2); experiment: Cellular degradation assay, eGFP-GSPT1 fusion with mCherry reporter in Flp-In 293 cells; type: cell-based; parameters: expressed in transfected cells; host or cells: Flp-In 293; conditions: for GSPT1 GFP/RFP Relative Abundance: 5 h incubation, n=1
T6 sequence (P15170 whole entry, the tested form may be a part): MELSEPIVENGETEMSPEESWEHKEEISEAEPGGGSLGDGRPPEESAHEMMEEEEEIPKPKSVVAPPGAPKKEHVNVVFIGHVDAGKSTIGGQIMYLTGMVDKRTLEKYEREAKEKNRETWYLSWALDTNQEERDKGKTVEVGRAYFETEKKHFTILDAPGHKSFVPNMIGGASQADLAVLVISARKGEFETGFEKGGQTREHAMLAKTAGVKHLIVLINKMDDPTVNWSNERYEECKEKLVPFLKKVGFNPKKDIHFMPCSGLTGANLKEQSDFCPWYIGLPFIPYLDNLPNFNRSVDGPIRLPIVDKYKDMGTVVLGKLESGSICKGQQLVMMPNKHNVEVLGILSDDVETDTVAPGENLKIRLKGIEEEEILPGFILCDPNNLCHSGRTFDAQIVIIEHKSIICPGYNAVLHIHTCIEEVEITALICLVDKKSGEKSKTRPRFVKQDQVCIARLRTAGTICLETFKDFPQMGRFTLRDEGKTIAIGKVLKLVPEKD
T6 sequence (Q96SW2 whole entry, the tested form may be a part): as the sequence (Q96SW2 whole entry) above
T6 sequence (Q16531 whole entry partner, the tested form may be a part): as the sequence (Q16531 whole entry partner) above
Procedure, shortened: as §1

Helios [5] = target: T7, Helios (Mus musculus, UniProt P81183+Q8C7D2, I391V); experiment: Flow cytometry of Helios in splenic T cell subpopulations from Crbn^I391V/I391V mice; type: cell-based, murine; conditions: 1 μM, 16 h
T7 construct: from tissue; host or cells: spleen (T cell subpopulations / CD4+ CD25+ Tregs) of Crbn I391V/I391V mice
Description: (§4) FIG. 8A-FIG. 8B are a series of graphs depicting levels of Ikaros and Helios that were assessed by flow cytometry. […] FIG. 8B depicts levels of Ikaros and Helios of splenic T cell subpopulations from Crbn^I391V/I391V mice that were treated with 1 μM of indicated compounds for 16 h.
(§5) Splenocytes were fixed/permeabilized and stained with fluorochrome-coupled antibodies. FACS plots of murine splenocytes were stained for TCRβ, CD4, CD8, and FoxP3 (FIG. 8A).

Ikaros [6] = target: T8, Ikaros (Mus musculus, UniProt Q03267+Q8C7D2, I391V); experiment: Flow cytometry of Ikaros in splenic T cell subpopulations from Crbn^I391V/I391V mice; type: cell-based, murine; conditions: 1 μM, 16 h
T8 construct: from tissue; host or cells: spleen (T cell subpopulations) of Crbn I391V/I391V mice
Description: as §4, §5

Helios [7] = target: T7, Helios; experiment: Helios levels in isolated Crbn^I391V/I391V Tregs; type: cell-based, murine; conditions: 2 μM, IL-2 and IL-4, 4 days
Description: (§6) FIG. 9A-FIG. 9C are a series of graphs showing that Helios degradation in Tregs permits IFNγ production. Isolated Crbn^I391V/I391V Tregs were treated with 2 μM of compound 69, 5 ng/mL IL-2, and 20 ng/mL IL-4 for 4 days and then restimulated with PMA/ionomycin for 5 h. […] FIG. 9B is a bar graph showing the percent increase of IFNγ with treatment of compound 69.
(§7) Foxp3+ regulatory T cells were isolated by sorting for CD4+ CD25+ T cells from Crbn^I391V/I391V spleens, treated with 2 μM of compound 69, 5 ng/mL IL-2, and 20 ng/mL IL4 for 4 days and then restimulated with PMA/ionomycin for 5 h. Cells were then fixed/permeabilized and stained with fluorochrome-coupled antibodies. […] FIG. 9B is a bar graph showing the percent increase of IFNγ with treatment of compound 69.

[8] = tested on: Foxp3+ regulatory T cells; experiment: IFNγ production of isolated Crbn^I391V/I391V Tregs after PMA/ionomycin restimulation; type: cell-based, murine; conditions: 2 μM, 4 days, restimulated with PMA/ionomycin 5 h
Description: as §6, §7

GSPT1 [9] = target: T6, GSPT1; experiment: Immunoblot for GSPT1 in Jurkat cells; type: cell-based; parameters: expressed in transfected cells; conditions: wildtype or Crbn−/− Jurkat cells, 4 h treatment
Description: as §2, §3

[10] = compound concentration 6.6667E−05
[11] = compound concentration 6.6667E−06
[12] = compound concentration 6.6667E−07 (667 nM)
[13] = compound concentration 2.00E−05
[14] = compound concentration 2.00E−06
[15] = compound concentration 2.00E−07
[16] = half degradation at 5 h (DC50,5 h), triplicate, 11 point dose response

SMILES	TR-FRET signal (520/490 ratio), CRBN-Helios dimerization, in words (CRBN and Helios (IKZF2))	TR-FRET-IKZF2 (Normalized to CC-885) (CRBN and Helios (IKZF2); [10])	TR-FRET-IKZF2 (Normalized to CC-885) (CRBN and Helios (IKZF2); [11])	TR-FRET-IKZF2 (Normalized to CC-885) (CRBN and Helios (IKZF2); [12])	IKZF2 GFP/RFP Relative Abundance (IKZF2; [13])	IKZF2 GFP/RFP Relative Abundance (IKZF2; [14])	IKZF2 GFP/RFP Relative Abundance (IKZF2; [15])	IKZF1 GFP/RFP Relative Abundance (IKZF1; [13])	IKZF1 GFP/RFP Relative Abundance (IKZF1; [14])	IKZF1 GFP/RFP Relative Abundance (IKZF1; [15])	Helios degradation on co-treatment with proteasome or NAE inhibitor (Helios [1])	Helios degradation (immunoblot) (Helios [1])	Ikaros degradation (immunoblot) (Ikaros [2])	further results
Cc1ccc(NC(=O)NC(C)c2cccc(NC3=CC(=O)N(C4CCC(=O)NC4=O)C3=O)c2)cc1Cl (stereo not drawn) [Compound 54, 1-(3-chloro-4-methylphenyl)-3-(1-(3-((1-(2,6-dioxopiperidin-3-yl)-2,5-dioxo-2,5-dihydro-1H-pyrrol-3-yl)amino)phenyl)ethyl)urea]	scored even higher than compound 44	1.729	1.629	1.382	0.030	0.024	0.027	0.119	0.106	0.102	both prevented Helios degradation	induced CRBN-dependent Helios degradation	lost some degradation activity against Ikaros in comparison to compound 44	IKZF2 mRNA levels (qPCR) (Ikzf2 mRNA): did not affect mRNA levels of IKZF2; Helios degradation in murine cells (Helios [3]): Helios was only degraded in Crbn^I391V/I391V cells; GSPT1 GFP/RFP Relative Abundance (GSPT1 [4]; [13]): 0.420; GSPT1 GFP/RFP Relative Abundance (GSPT1 [4]; [14]): 0.638; GSPT1 GFP/RFP Relative Abundance (GSPT1 [4]; [15]): 0.567
Cc1ccc(NC(=O)NC(C)(C)c2cccc(NC3=CC(=O)N(C4CCC(=O)NC4=O)C3=O)c2)cc1Cl (stereo not drawn) [Compound 69, 1-(3-chloro-4-methylphenyl)-3-(2-(3-((1-(2,6-dioxopiperidin-3-yl)-2,5-dioxo-2,5-dihydro-1H-pyrrol-3-yl)amino)phenyl)propan-2-yl)urea]	induced higher TR-FRET signals than CC-885	2.037	1.970	1.737	0.032	0.013	0.028	0.086	0.140	0.132	Helios degradation is dependent on the proteasome	induced CRBN-dependent Helios degradation	did not affect the stability of GSPT1 or Ikaros	DC50 (IKZF2; [16]): 3.6 nM; DC50 (IKZF1; [16]): 14 nM; Helios degradation in regulatory T cells (flow cytometry) (Helios [5]): capable of inducing degradation of Helios; Ikaros degradation in regulatory T cells (flow cytometry) (Ikaros [6]): not Ikaros; Helios degradation in isolated Tregs (Helios [7]): able to induce degradation of Helios in Tregs; IFNγ production [8]: increased production of IFNγ upon restimulation; GSPT1 stability (immunoblot) (GSPT1 [9]): did not affect the stability of GSPT1 or Ikaros; DC50 (GSPT1 [4]; [16]): > 1000 nM
